Source: paper PMC7493195 (Journal of medicinal chemistry, 2020)

Key:
SRC = SRC (Homo sapiens, UniProt P12931); experiment: Z’LYTE / LanthaScreen kinase assay; format: biochemical
kinases = details: cited from earlier work
p-SRC^Y416 [1] = details: 3 doses of 5 mg/kg IP, 2 and 4 h after last dose
MEK1/2 and ERK1/2 = experiment: Cellular target engagement, TL13–68 competition pulldown, MEK1/2 and ERK1/2; format: cell-based; details: H1975 and HCC827 cells, 1 μM, 2 h
p-SRC^Y416 [2] = details: H1975, 1 μM, 2 h, then 0, 2, 4 h postwashout
[3] = Stability in mouse liver microsomes; format: in vitro ADME
p-SRC^Y416 [4] = details: H1975 and HCC827 cells, 1 μM, 2 h
[5] = test system: MDA-MB-231, H1975 and HCC827 cells; details: 72 h, three cell lines
[6] = test system: panel of 468 human kinases; details: 1 μM, 468 kinases, cited from earlier work
FGFR1 = FGFR1 (Homo sapiens, UniProt P11362); experiment: Z’LYTE / LanthaScreen kinase assay; format: biochemical
Sequence of FGFR1 (P11362 22-822): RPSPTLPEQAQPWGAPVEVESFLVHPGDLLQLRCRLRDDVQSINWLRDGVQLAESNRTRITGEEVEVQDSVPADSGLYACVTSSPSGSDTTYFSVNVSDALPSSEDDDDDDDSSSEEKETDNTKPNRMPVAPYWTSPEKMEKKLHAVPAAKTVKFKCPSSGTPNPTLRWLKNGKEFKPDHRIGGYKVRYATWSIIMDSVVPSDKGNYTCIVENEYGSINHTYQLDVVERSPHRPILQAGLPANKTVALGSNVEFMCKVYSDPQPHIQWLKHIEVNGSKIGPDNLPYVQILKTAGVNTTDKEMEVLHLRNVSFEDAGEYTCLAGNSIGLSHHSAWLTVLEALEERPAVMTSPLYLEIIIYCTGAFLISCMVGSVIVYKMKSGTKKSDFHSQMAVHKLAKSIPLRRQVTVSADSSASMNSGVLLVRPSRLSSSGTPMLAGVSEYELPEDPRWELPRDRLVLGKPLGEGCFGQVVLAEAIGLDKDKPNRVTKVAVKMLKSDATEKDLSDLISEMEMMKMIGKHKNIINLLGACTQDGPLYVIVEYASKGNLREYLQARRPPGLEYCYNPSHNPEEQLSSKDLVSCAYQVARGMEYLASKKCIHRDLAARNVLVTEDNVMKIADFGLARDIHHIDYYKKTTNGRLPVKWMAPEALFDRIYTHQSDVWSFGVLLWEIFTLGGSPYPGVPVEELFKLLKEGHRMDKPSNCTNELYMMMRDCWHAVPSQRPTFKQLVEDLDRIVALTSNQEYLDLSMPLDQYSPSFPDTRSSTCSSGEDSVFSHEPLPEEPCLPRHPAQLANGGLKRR

Sequence of SRC (P12931 whole entry): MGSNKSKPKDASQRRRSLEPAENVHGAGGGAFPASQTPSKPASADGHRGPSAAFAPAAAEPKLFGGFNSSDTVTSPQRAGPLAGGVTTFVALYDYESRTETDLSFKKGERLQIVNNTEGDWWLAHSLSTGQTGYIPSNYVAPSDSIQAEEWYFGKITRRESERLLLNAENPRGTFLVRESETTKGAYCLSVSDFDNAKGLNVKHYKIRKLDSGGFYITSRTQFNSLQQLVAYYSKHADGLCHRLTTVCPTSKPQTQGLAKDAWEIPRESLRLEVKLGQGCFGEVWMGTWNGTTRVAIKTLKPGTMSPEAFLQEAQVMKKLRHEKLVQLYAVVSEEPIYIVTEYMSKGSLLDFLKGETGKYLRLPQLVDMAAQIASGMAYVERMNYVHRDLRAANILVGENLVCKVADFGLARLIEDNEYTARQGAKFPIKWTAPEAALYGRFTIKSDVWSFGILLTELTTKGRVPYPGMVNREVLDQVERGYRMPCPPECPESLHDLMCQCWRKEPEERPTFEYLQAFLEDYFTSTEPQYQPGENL

For `C=CC(=O)Nc1ccccc1Nc1nc(Nc2ccc(N3CCC(N4CCN(C)CC4)CC3)cc2)ncc1C(=O)Nc1c(C)cccc1Cl` [Compound 17c, 4-((2-Acrylamidophenyl)amino)-N-(2-chloro-6-methylphenyl)-2-((4-(4-(4-methylpiperazin-1-yl)piperidin-1-yl)phenyl)amino)-pyrimidine-5-carboxamide], the “activity on SRC, in words” value (SRC) was “loss of binding”.
In the case of `COc1cc(Nc2c(C#N)cnc3cc(OCCCN4CCN(C)CC4)c(OC)cc23)c(Cl)cc1Cl` [bosutinib], the “number of kinases inhibited” value (kinases) is listed as greater than 45 kinases.
For `C=CC(=O)Nc1ccccc1Nc1nc(Nc2ccc(N3CCN(C)CC3)cc2)ncc1C(=O)Nc1c(C)cccc1Cl` [Compound 15a, 4-((2-Acrylamidophenyl)amino)-N-(2-chloro-6-methylphenyl)-2-((4-(4-methylpiperazin-1-yl)phenyl)amino)pyrimidine-5-carboxamide], the “inhibition of p-SRC^Y416 in spleen” value (p-SRC^Y416 [1]) was “inhibition of p-SRC^Y416 at 2 and 4 h postdosing”, the “cellular engagement of MEK1/2 or ERK1/2” value (MEK1/2 and ERK1/2) was “did not engage” and the “inhibition of p-SRC^Y416 signaling after washout” value (p-SRC^Y416 [2]) was “potent and sustained inhibition of p-SRC^Y416 signaling up to 4 h postwashout”. The half-life [3] was 5.2 min and the “inhibition of p-SRC^Y416 signaling” value (p-SRC^Y416 [4]) was “inhibited p-SRC^Y416 signaling”.
With `CN1CCN(CCOc2cc(OC3CCOCC3)c3c(Nc4c(Cl)ccc5c4OCO5)ncnc3c2)CC1` [AZD0530] the “growth inhibitory potency, in words” value [5] was “weaker potency compared to 15a”.
For `C=CC(=O)Nc1ccccc1Nc1nc(Nc2ccc(N3CCN(C)CC3)cc2)ncc1Cl` [SM1–71], the “selectivity score S(35)” value ([6]; specified percent inhibition 35%) is listed as 0.43 and the “number of kinases hit” value [6] is listed as “more than 100 kinases”.
In the case of `C=CC(=O)Nc1ccccc1Nc1nc(Nc2ccc(N3CCN(C)CC3)cc2)ncc1C(=O)Nc1ccc(Oc2ccccc2)cc1` [Compound 15i, 4-((2-Acrylamidophenyl)amino)-2-((4-(4-methylpiperazin-1-yl)-phenyl)amino)-N-(4-phenoxyphenyl)pyrimidine-5-carboxamide], the “activity on FGFR1, in words” value (FGFR1) is reported as “complete loss of activity” and the “activity on SRC, in words” value (SRC) is reported as “complete loss of activity”.
For `C=CC(=O)Nc1ccccc1Nc1nc(Nc2ccc(N3CCN(C)CC3)cc2)ncc1OCc1ccc(Oc2ccccc2)cc1` [Compound 10c, N-(2-((2-((4-(4-Methylpiperazin-1-yl)phenyl)amino)-5-((4-phenoxybenzyl)oxy)pyrimidin-4-yl)amino)phenyl)acrylamide], the “loss of activity on FGFR1 compared to SM1–71” value (FGFR1) was 20 fold.
For `Cc1nc(Nc2ncc(C(=O)Nc3c(C)cccc3Cl)s2)cc(N2CCN(CCO)CC2)n1` [dasatinib], the “number of kinases inhibited” value (kinases) is listed as greater than 30 kinases.
